In ChEMBL document CHEMBL1817644, “Rational design of SAM analogues targeting SAM-II riboswitch aptamer” (Bioorg Med Chem Lett, 2011):
Active and inactive are the calls of the source. The calls are words filed in the database; no cut-off is given here.

Columns and labels:
Format in all cases: nucleic-acid assay
Nucleic Acid [1] = assay: Binding affinity to SAM1 riboswitch aptamer assessed as change in heat at 0.5 mM at pH 7.5 by Isothermal titration calorimetry
Nucleic Acid [2] = assay: Binding affinity to 2-amino purine labelled SAM2 riboswitch aptamer assessed as change in fluorescence at 5 mM to 10 mM at pH 8.3 by fluorescence binding assay
Nucleic Acid [3] = assay: Ratio of S-adenosylmethionine Kd to compound Kd for SAM2 riboswitch aptamer

**Q.** Which Activity (Nucleic Acid [1]) does the source give for `C[S+](CC[C@H](N)C(=O)NCCN)C[C@H]1O[C@@H](n2cnc3c(N)ncnc32)[C@H](O)[C@@H]1O` (stereo not given in full) here?
**A.** inactive

**Q.** And the Kd (Nucleic Acid [2])?
**A.** 3.1 µM

**Q.** `Nc1ncnc2c1ncn2[C@@H]1O[C@H](CSCC[C@H](N)C(=O)O)[C@@H](O)[C@H]1O` was tested. Which Activity (Nucleic Acid [2]) did it give?
**A.** inactive

**Q.** Which results are given for `C[S+](CC[C@H](N)C(=O)[O-])C[C@H]1O[C@@H](n2cnc3c(N)ncnc32)[C@H](O)[C@@H]1O` (stereo not given in full) [ADEMETIONINE]?
**A.** Activity (Nucleic Acid [2]): Active; Kd (Nucleic Acid [2]): 6 µM

**Q.** With `C[S+](CC[C@H](NC(=O)CNCCN)C(=O)O)C[C@H]1O[C@@H](n2cnc3c(N)ncnc32)[C@H](O)[C@@H]1O` (stereo not given in full) as the compound, how does the Activity (Nucleic Acid [2]) read?
**A.** inactive

**Q.** With `CN1/C(=C\c2cc[n+](CCCC(=O)N[C@@H](CC[S+](C)C[C@H]3O[C@@H](n4cnc5c(N)ncnc54)[C@H](O)[C@@H]3O)C(=O)O)c3ccccc23)Sc2ccccc21` (stereo not given in full) as the compound, how does the Ratio (Nucleic Acid [3]) read?
**A.** 2

**Q.** What about the Activity (Nucleic Acid [2]) of the same compound?
**A.** Active

**Q.** `C[S+](CC[C@H](NC(=O)CCN)C(=O)O)C[C@H]1O[C@@H](n2cnc3c(N)ncnc32)[C@H](O)[C@@H]1O` (stereo not given in full) was tested. Which Activity (Nucleic Acid [2]) did it give?
**A.** inactive

**Q.** How did the Activity (Nucleic Acid [2]) turn out when `C[S+](CC[C@H](NC(=O)CN)C(=O)O)C[C@H]1O[C@@H](n2cnc3c(N)ncnc32)[C@H](O)[C@@H]1O` (stereo not given in full) was run?
**A.** inactive
